# Experimental data taken from article PMC12040169 (PLOS Biology, 2025).
# Experiment: in vitro
# Conditions: human, hela cells, % viability
row,SMILES,"viability at 28.5 h, 10 µM [%]"
1,O=c1cc(Cn2ccnc2)c2cc3c(cc2o1)CCC3 [CBK287813],88.8
2,O=C1CCCN1CCCNC(=O)C1(c2ccccc2)COc2ccccc21 (stereo not shown) [CBK017653],92.3
3,COc1cc(Nc2cc(-c3cccc(N)c3)nc3ccnn23)cc(OC)c1OC [CBK037236],105
4,CC(=O)Nc1ccc(-c2nc(-c3ccc(-c4ccccc4)cc3)c(-c3ccc(-c4ccccc4)cc3)[nH]2)cc1 [CBK262620],87.3
5,Cc1ncccc1COC(=O)Nc1cccnc1 [CBK138237],94.3
6,CC(C)Oc1cccc(C(=O)Nc2ccc(N3CCN(C(=O)C(C)(C)C)CC3)cc2)c1 [CBK270280],88.7
7,CCCCn1c(SCc2nc(-c3ccncc3)no2)nc2ccsc2c1=O [CBK288576],87
8,Cc1ccc(OC(C)C(=O)NCCCN2CCOCC2)cc1C (stereo not shown) [CBK268109],94.3
9,O=C(c1cccnc1)N1CCN(S(=O)(=O)c2ccccc2[N+](=O)[O-])CC1 [CBK264227],97
10,O=C(O)C1CC=CCC1C(=O)NCc1ccc(N2CCCC2=O)cc1 (stereo not shown) [CBK270081],79.7
11,O=C(O)c1cccc(CSc2nnc(-c3ccncc3)o2)c1 [CBK266310],106
12,FC(F)(F)c1cccc(OCCN2CCNCC2)n1 [CBK113291],91.5
13,CCOC(=O)c1cnn(C2CCCN(Cc3cc(C#N)cs3)C2)c1 (stereo not shown) [CBK305399],101
14,CCCc1ccc(S(=O)(=O)Nc2ccc(C(=O)N(CC)CC)cc2)cc1 [CBK034403],92.3
15,O=C(NCCCN1CCOCC1)c1cnc(-c2ccccc2)c(-c2ccncc2)c1 [CBK036664],106
16,CCN1CCN(Cc2nc3c(c(=O)n(C)c(=O)n3C)n2Cc2c(F)cccc2Cl)CC1 [CBK269236],108
17,O=C1NN=C(Cc2ccccc2)C1c1ccccc1 (stereo not shown) [CBK067757],95.6
18,CCCS(=O)(=O)N1CCN(C(=O)c2cccnc2)CC1 [CBK264239],93.8
19,O=C(CN1C(=O)S/C(=C\c2ccc(OCc3ccccc3)cc2)C1=O)c1ccccc1 [CBK264636],95.1
20,CCOC(=O)c1nc(-c2ccccc2)sc1C(C)=O [CBK067739],98.8
21,CCN(CC)CCSc1nc2sc3c(c2c(=O)n1-c1ccc(OC)cc1)CCCC3 [CBK263308],89.3
22,O=[N+]([O-])c1cccc(S(=O)(=O)NCc2ccccn2)c1 [CBK263669],98.4

row,SMILES,"viability at 28.5 h, 10 µM [%]"
1,O=[N+]([O-])c1ccc(Oc2cccc(Cl)c2Cl)c(C(F)(F)F)c1 [CBK002594],82.8
2,c1cncc(-c2cn3ccnc3c(NC3CCCCC3)n2)c1 [CBK093606],84.6
3,Cc1ccccc1CNCCNCC(C)O (stereo not shown) [CBK268718C],95.9
4,COc1ccccc1OC(=O)c1ccccc1Cl [CBK090164],81.4
5,CN1CCN(CC(=O)Nc2ccc([N+](=O)[O-])cc2C(=O)c2ccccc2)CC1 [CBK265772],104
6,Cc1cc(COc2nccnc2N2CCN(Cc3ccc([N+](=O)[O-])cc3)CC2)no1 [CBK084189],92
7,CN(C)CCCN[C@H]1CC[C@@H](c2ccccc2)CC1 [CBK016465],96.2
8,CC(=O)Nc1ccc(S(=O)(=O)N2CCN(S(=O)(=O)N3CCCCCC3)CC2)cc1 [CBK268983],99.3
9,Cn1nc2c(cc1=O)CN(C(=O)c1cnc(C(C)(C)C)nc1)CC2 [CBK304293],96.5
10,CCn1nccc1C(=O)N1CCC(c2cc3c(C)cccc3cn2)CC1 [CBK282234],92.4
11,Cc1noc(C)c1NC(=O)c1cnccn1 [CBK200390],89.9
12,Cc1cn(CC(=O)N2CCC3(CCCNC3)C2)c(=O)[nH]c1=O (stereo not shown) [CBK153231C],95.9
13,COC(=O)[C@@H](C)NC(=O)[C@@H]1CN(S(C)(=O)=O)CCN1C(=O)c1cccs1 [CBK289623],89.6
14,Cc1cc(C2CCCCCN2C(=O)c2c(Cl)cnn2C)on1 (stereo not shown) [CBK283045],108
15,Clc1ccc(COc2cccc(CNCc3ccccn3)c2)c(Cl)c1 [CBK270060C],88.8
16,CN1[C@@H](CCC(=O)NCc2ccc(F)cc2)CNC(=O)[C@@H]2[C@H]1CCN2C1CCOCC1 [CBK289023],106
17,O=C(CSc1nnc(COc2ccccc2)o1)c1cccc([N+](=O)[O-])c1 [CBK267868],104
18,Nc1c(-c2ccsc2)cnc2ncccc12 [CBK083707],108
19,COc1cccc2sc(Nc3nnc(-c4cccs4)o3)nc12 [CBK287473],85.4
20,CCNC(=O)NC[C@H]1C[C@@H]2CCN1C[C@@H]2c1cc(-c2ccccc2)nc(C)n1 [CBK289125],116
21,CC(C)N(CCOc1nccnc1-c1ccsc1)C(C)C [CBK106777],111
22,COc1cncc(-c2cc(Nc3cc(OC)c(OC)cc3C)ncn2)c1 [CBK090782],84.9

row,SMILES,"viability at 28.5 h, 10 µM [%]"
1,Cc1cc(C)n(CC(=O)NCC(c2c(F)cccc2F)N(C)C)n1 (stereo not shown) [CBK305510],96.7
2,CN1CCN(NC(=O)C23CCC(C)(C(=O)O2)C3(C)C)CC1 (stereo not shown) [CBK268285],99.1
3,CCN(CC(=O)NCc1cccnc1)S(=O)(=O)c1ccc2ccccc2c1 [CBK300514],108
4,Cc1cc(NC(=O)c2cc(Br)cnc2NCc2cccnc2)n(C)n1 [CBK076358],90.7
5,CCCC/C=C/c1cn2ccnc2c(Nc2cccc(OCC(=O)N(C)C)c2)n1 [CBK066185],108
6,CCCN1C(=O)[C@@H]2[C@@H](CCN2C(=O)C(=O)O)N(Cc2cccs2)C1=O [CBK289277],93.1
7,Cc1cc(=O)oc2c1c(C)nn2-c1nn[nH]n1 [CBK266732],91
8,COc1ccc(C(=O)Nc2ccccc2-c2nc3ccccc3s2)cc1OC [CBK266376],93.9
9,COc1ccc(C=CC(=O)ONC(=O)c2ccc(OC(F)F)cc2)cc1OC [CBK296098],92.8
10,Cc1ccc2c(c1)cc(C(=O)N(C)CC1(C)COC1)n2C [CBK281723],86.4
11,Cc1nn(-c2ccccc2)c2nc(O)c(CNC(c3ccccc3)c3ccco3)cc12 (stereo not shown) [CBK286449],83.8
12,COc1ccc(-c2nc3cc(OC)ccc3[nH]2)cc1 [CBK000126],90.5
13,Cc1ccc2c(CSc3nc(N)cc(N)n3)cc(=O)oc2c1C [CBK297519],87.7
14,O=C1c2ccccc2C(=O)N1CCc1c[nH]c2ccc(O)cc12 [CBK086794],76
15,CCCC(=O)N1CCC(c2nnc(-c3ccsc3)o2)CC1 [CBK283377],85.5
16,O=C(Cn1cc(-c2ccc(CN3CCOCC3)cc2)nn1)NCc1cccc(C(F)(F)F)c1 [CBK165803],87.5
17,CNC(=O)C1(Cc2ccccc2-c2ccccc2C)CCN(C(=O)Cc2ccccc2)CC1 [CBK285901],106
18,O=C(NC1CCS(=O)(=O)C1)c1cnc2c(Cl)cccc2c1O (stereo not shown) [CBK304644],87.4
19,O=C(NCc1ccncc1)C1CCCN(c2nc3c(-c4ccccc4)csc3c(=O)[nH]2)C1 (stereo not shown) [CBK215493],107
20,COc1ccccc1-c1ccnc(N[C@H]2CO[C@H]3[C@@H]2OC[C@@H]3NC(=O)C2CCCCC2)n1 [CBK289529],94.8
